Results: patent US20090162372A1, “FIBRONECTIN ED-B ANTIBODIES, CONJUGATES THEREOF, AND METHODS OF USE” (Medarex, Inc., priority 2007, published 2009)

B1: anti-ED-B: human monoclonal antibody 1C5 binding fibronectin ED-B, VH SEQ ID NO: 7, VL SEQ ID NO: 8; naked antibody (antibody, listed as Homo sapiens, V domains shown)
VH: EVQLVESGGGLVQPGGSLRLSCAASGFTFSSYSMNWVRQAPGKGLEWVSYISSSSRAIYYADSVKGRFTISRDNAKNSLYLQMNSLRDEDTAVYYCARARYFDWLWYYWGQGTLVTVSS
VL: EIVLTQSPGTLSLSPGERATLSCRASQSVSSSYLAWYQQEPGQAPRLLIYGASSRATGIPDRFSGSGSGTDFTLTISRLEPEDFAVYYCQQRSNWPPTFGQGTKVEIK

Tests used:
[1] = experimental animals; cited from earlier work
[2] = test system: LNCaP/prostate stroma coculture tumors; assay: Efficacy against LNCaP/prostate stroma coculture tumors in SCID mice (tumor volume); format: in vivo, CB17.SCID mice; conditions: naked antibody 30 mg/kg IP SD on Day 0; to Day 62; FIG. 4
Protocol: In order to determine the efficacy of anti-RG-1 and ED-B-cytotoxin conjugates (using the cytotoxin/linker of formula (m)), LNCaP xenografts were performed as follows: 120 CB17.SCID mice were each subcutaneously injected with 2 million LNCaP cells and 1 million prostate stroma cells (cat# CC-2508, Cambrex Bio Science Walkersville, Inc, Walkersville, Md.) resuspended in 0.2 ml of PBS/Matrigel (1:1) (BD Bioscience) at the flank region. This LNCaP/Stroma model expresses high levels of PMSA on the cell surface, high levels of RG-1 in the stroma, and low levels of ED-B in the stroma. CD70 is used as an isotype control as the xenographs are negative for CD70. Mice were weighed and measured for tumors three dimensionally using an electronic caliper once weekly after implantation. Tumor volumes were calculated as height×width×length/2. Mice with tumors averaging 50 mm^3 were randomized into 16 treatment groups of seven mice on Day-1 and mice were treated intraperitoneally with vehicle, antibody, or antibody-cytotoxin conjugate according to the dosing regimen described in Table 1 on Day 0, Studies were terminated at Day 62.

| Molecule | delayed death [1] | effect on tumor growth (median tumor volume) [2] |
| --- | --- | --- |
| COc1c(O)c2c(c3cc(C(=O)N4CCc5c4c(O)c(OC)c4[nH]c(C(=O)N6CC7CC78C6=CC(=O)c6[nH]cc(C)c68)cc54)[nH]c13)CCN2C(N)=O (centres unmarked) [CC-1065] | causes delayed death in experimental animals |  |
| B1 |  | no inhibitory effect on tumor growth |
